Assay results reported in patent US20250282799A1, “SUBSTITUTED PYRIDO[4,3-d]PYRIMIDINES AS KRAS MODULATORS” (Alterome Therapeutics, Inc., priority 2023, published 2025).

What follows are compounds tested on KRAS G12V dependent lung adenocarcinoma cell line, NCI-H441 (assay: Cellular pERK (Thr202/Tyr204) FRET/HTRF assay). Conditions: Homo sapiens, NCI-H441, cellular pERK (Thr202/Tyr204) HTRF, NCI-H441 cells.
Assay type: cell-based
Source text: “Ras” refers to a protein in the Ras superfamily of small GTPases, such as in the Ras subfamily. […] The Ras proteins play a critical role in the regulation of cell behaviors, including proliferation, differentiation, and survival. […] KRAS G12V, G12D, and G12S variants are common in human cancers and Ras inhibitors binding in or near the Switch II pocket may provide mutant binding selectivity. RAS mutations are known to be often associated with pancreatic, colorectal and non-small-cell lung carcinomas (Lone, A. M. et al. J. Am. Chem. Soc. 2011,133, 11665-74, which is entirely incorporated herein by reference; Dillon, M. B.; Bachovchin, D. A.; Brown, S. J.; Finn, M. G.; Rosen, H.; Cravatt, B. F.; Mowen, K. A. ACS Chem. Biol. 2012, 7, 1198-204, which is entirely incorporated herein by reference; Bachovchin, D. A.; Brown, S. J.; Rosen, H.; Cravatt, B. F. Nat. Biotechnol. 2009, 27, 387-94, Ostrem, J. M.; Peters, U.; Sos, M. L.; Wells, J. A.; Shokat, K. M. Nature 2013, 503, 548-551. Ryan M. B. and Corcoran R. B, Nat. Rev Clin Onco. 2018, 11, 709-720.). Ras proteins are key members in the Ras/Raf/Mitogen-activated protein kinase (MAPK) signaling pathway. This pathway regulates a wide variety of cellular processes, including proliferation, differentiation, apoptosis, and stress responses. One way to measure the impact of an inhibitor of Ras proteins is to measure downstream phosphorylation of proteins in the MAPK pathway. The MAPK pathway includes extracellular signal-regulated kinases named ERK1 and ERK2, which are serine-threonine kinases that regulate cellular signaling under both normal and oncogenic conditions. ERK expression and hyperactivation via phosphorylation plays a major role in cancer progression and are downstream of Ras proteins. The assay used for measuring the downstream impact of Ras inhibition is the use of a highly sensitive cell-based readout of ERK phosphorylation (pERK) specifically on Threonine (Thr) 202 and Tyrosine (Tyr) 204 in a KRAS G12V dependent lung adenocarcinoma cell line, NCI-H441 (ATCC Cat #HTB-174). The assay described herein is suitable for assessing inhibition of Ras and can be tailored for any of the predominant oncogenic mutations in any isoform of Ras (e.g., KRAS, HRAS, and NRAS) by changing the cell line.
pERK was measured using an advanced pERK assay designed for the robust and highly sensitive quantification of ERK phosphorylation on Thr202/Tyr204. This assay is intended for the simple, rapid, and direct detection of endogenous levels of ERK1/2 in cells, but only when ERK is phosphorylated at Thr202 and Tyr204 (Perkin Elmer Catalog #64AERPEH). pERK was detected in a FRET based sandwich assay format using 2 different specific antibodies, one labelled with Eu3+-Cryptate (donor) and the second with d2 (acceptor). When the dyes are in close proximity, the excitation of the donor with a light source (laser or flash lamp) triggers a Fluorescence Resonance Energy Transfer (FRET) towards the acceptor, which in turn fluoresces at a specific wavelength (665 nm). The specific signal modulates positively in proportion to p-ERK1/2 (Thr202/Tyr204). The simple mix-and-read protocol eliminates all wash steps for faster analysis and high-quality output. Briefly, cells were diluted to the desired concentration per well based on a growth curve showing ˜75% confluence within a 24-hour time period at no less than 95% viability. Cell suspension (24 μL) were added into each well of 384-well culture plate and maintained in 37° C. 5% CO2 incubator overnight prior to assay. All compounds were transferred to stock plates using TECAN (EVO200) liquid handler using DMSO as the solubilizing and dilution agent. Test compounds were transferred onto adherent cells using an Echo655 liquid handler. DMSO was employed as negative control. Cells were incubated with test compounds for 1 hr in a 37° C., 5% CO2 incubator following compound addition. […]

Structure (SMILES) | IC50 [nM]
[2H]C([2H])([2H])Oc1c(F)c(F)cc2cncc(-c3ncc4c(N5CCOC[C@H]6[C@H](F)[C@H]65)nc(OC([2H])([2H])[C@@]56CCCN5C[C@H](F)C6)nc4c3F)c12 [Example 136, (1S,7S,8S)-2-(7-(6,7-difluoro-5-(methoxy-d3)isoquinolin-4-yl)-8-fluoro-2-(((2R,7aS)-2-fluorotetrahydro-1H-pyrrolizin-7a(5H)-yl)methoxy-d2)pyrido[4,3-d]pyrimidin-4-yl)-8-fluoro-5-oxa-2-azabicyclo[5.1.0]octane] | 50 to 500
C#Cc1c(F)ccc2cc(N)cc(-c3ncc4c(N5CCOC[C@H]6[C@H](F)[C@H]65)nc(OC[C@]56C[C@]7(CN5CCC65CC5)CC7(F)F)nc4c3F)c12 (single isomer, unassigned) [Example 219] | < 50
C#Cc1c(F)ccc2cccc(-c3ncc4c(N5CCOC[C@H]6[C@H](F)[C@H]65)nc(OC[C@]56C[C@@H](F)CN5C[C@@H](CN)C6)nc4c3F)c12 [Example 246, ((2R,6R,7aS)-7a-(((7-(8-ethynyl-7-fluoronaphthalen-1-yl)-8-fluoro-4-((1S,7S,8S)-8-fluoro-5-oxa-2-azabicyclo[5.1.0]octan-2-yl)pyrido[4,3-d]pyrimidin-2-yl)oxy)methyl)-6-fluorohexahydro-1H-pyrrolizin-2-yl)methanamine] | 500 to 10000
C#Cc1c(F)ccc2cccc(-c3ncc4c(N5CCOC[C@H]6[C@H](F)[C@H]65)nc(OC[C@]56CCCN5CC(=C(F)F)C6)nc4c3F)c12 [Example 104, (1S,7S,8S)-2-(2-(((R)-2-(difluoromethylene)tetrahydro-1H-pyrrolizin-7a(5H)-yl)methoxy)-7-(8-ethynyl-7-fluoronaphthalen-1-yl)-8-fluoropyrido[4,3-d]pyrimidin-4-yl)-8-fluoro-5-oxa-2-azabicyclo[5.1.0]octane] | < 50
[2H]C([2H])(Oc1nc(N2CCOC[C@@H]3[C@@H](F)[C@@H]32)c2ccc(-c3cc(N)cc(C)c3C(F)(F)F)c(F)c2n1)[C@@]12CCCN1C[C@H](F)C2 [Example 182, 3-(8-fluoro-4-((1R,7R,8R)-8-fluoro-5-oxa-2-azabicyclo[5.1.0]octan-2-yl)-2-(((2R,7aS)-2-fluorotetrahydro-1H-pyrrolizin-7a(5H)-yl)methoxy-d2)quinazolin-7-yl)-5-methyl-4-(trifluoromethyl)aniline] | 500 to 10000
[2H]C([2H])([2H])Oc1c(F)c(F)c(F)c2cc(N)cc(-c3ncc4c(N5CCOC[C@H]6[C@H](F)[C@H]65)nc(OC[C@@]56CCCN5C/C(=C/F)C6)nc4c3F)c12 [Example 132, 6,7,8-trifluoro-4-(8-fluoro-4-((1S,7S,8S)-8-fluoro-5-oxa-2-azabicyclo[5.1.0]octan-2-yl)-2-(((S,E)-2-(fluoromethylene)tetrahydro-1H-pyrrolizin-7a(5H)-yl)methoxy)pyrido[4,3-d]pyrimidin-7-yl)-5-(methoxy-d3)naphthalen-2-amine] | < 50

The next lines start with the values.

IC50 [nM] | Structure (SMILES)
< 50 | C#Cc1c(Cl)ccc2cc(N)cc(-c3ncc4c(N5CCOC[C@H]6[C@H](Cl)[C@H]65)nc(OC[C@@H]5CCCN5C)nc4c3F)c12 [Example 321, 6-chloro-4-(4-((1S,7S,8S)-8-chloro-5-oxa-2-azabicyclo[5.1.0]octan-2-yl)-8-fluoro-2-(((S)-1-methylpyrrolidin-2-yl)methoxy)pyrido[4,3-d]pyrimidin-7-yl)-5-ethynylnaphthalen-2-amine]
< 50 | [2H]C([2H])(F)Oc1c(F)ccc2cccc(-c3ncc4c(N5CCCC[C@H]6[C@H](F)[C@H]65)nc(OC[C@]56C/C(=C/F)CN5CCC65CC5)nc4c3F)c12 [Example 408, (R,Z)-7a′-(((8-fluoro-7-(7-fluoro-8-(fluoromethoxy-d2)naphthalen-1-yl)-4-((1S,7R,8S)-8-fluoro-2-azabicyclo[5.1.0]octan-2-yl)pyrido[4,3-d]pyrimidin-2-yl)oxy)methyl)-6′-(fluoromethylene)hexahydrospiro [cyclopropane-1,1′-pyrrolizine]]
< 50 | C#Cc1c(F)ccc2cc(N)cc(-c3ncc4c(N5CCOC[C@H]6[C@H](F)[C@H]65)nc(OC[C@@]56CCCN5[C@@H](C)[C@H](F)C6)nc4c3F)c12 [Example 278, 5-ethynyl-6-fluoro-4-(8-fluoro-2-(((2R,3S,7aS)-2-fluoro-3-methyltetrahydro-1H-pyrrolizin-7a(5H)-yl)methoxy)-4-((1S,7S,8S)-8-fluoro-5-oxa-2-azabicyclo[5.1.0]octan-2-yl)pyrido[4,3-d]pyrimidin-7-yl)naphthalen-2-amine]

Same assay, conditions: Homo sapiens, NCI-H441, pERK HTRF, NCI-H441 cells (KRAS G12V)

IC50 [nM] | Structure (SMILES)
< 50 | C#Cc1c(F)ccc2cc(O)cc(-c3ncc4c(N5CCCCC6C5C6(F)F)nc(OC[C@@]56CCCN5C[C@H](F)C6)nc4c3F)c12 (stereo partly drawn) [Example 6, 4-(4-(8,8-Difluoro-2-azabicyclo[5.1.0]octan-2-yl)-8-fluoro-2-(((2R,7aS)-2-fluorotetrahydro-1H-pyrrolizin-7a(5H)-yl)methoxy)pyrido[4,3-d]pyrimidin-7-yl)-5-ethynyl-6-fluoronaphthalen-2-ol]

Same assay, conditions: cellular pERK (Thr202/Tyr204) HTRF, NCI-H441 cells

IC50 [nM] | Structure (SMILES)
< 50 | [2H]C([2H])(Oc1nc(N2CCOC[C@H]3[C@H](F)[C@H]32)c2cc(C(F)(F)F)c(-c3ccc(F)c4sc(N)c(C#N)c34)c(F)c2n1)[C@@]12CCCN1C[C@H](F)C2 (atropisomer, axis not shown; (aS)) [Example 390, 2-amino-7-fluoro-4-((R)-8-fluoro-4-((1S,7S,8S)-8-fluoro-5-oxa-2-azabicyclo[5.1.0]octan-2-yl)-2-(((2R,7aS)-2-fluorotetrahydro-1H-pyrrolizin-7a(5H)-yl)methoxy-d2)-6-(trifluoromethyl)quinazolin-7-yl)benzo[b]thiophene-3-carbonitrile]
< 50 | [2H]C([2H])(Oc1nc(N2CCOC[C@H]3[C@H](F)[C@H]32)c2cc(F)c(-c3cc(N)cc4ccc(F)c(C#C)c34)c(F)c2n1)[C@@]12CCCN1C[C@H](F)C2 (atropisomer, axis not shown; (aS)) [Example 391, 4-((R)-6,8-difluoro-4-((1S,7S,8S)-8-fluoro-5-oxa-2-azabicyclo[5.1.0]octan-2-yl)-2-(((2R,7aS)-2-fluorotetrahydro-1H-pyrrolizin-7a(5H)-yl)methoxy-d2)quinazolin-7-yl)-5-ethynyl-6-fluoronaphthalen-2-amine]

Same assay, conditions: cellular pERK HTRF, NCI-H441 (KRAS G12V) cells

IC50 [nM] | Structure (SMILES)
500 to 10000 | N#Cc1c(N)sc2c(F)ccc(-c3c(C(F)(F)F)cc4c(N5CCOC[C@H]6[C@H](F)[C@H]65)nc(OC[C@@]56CCCN5CC(=C(F)F)C6)nc4c3F)c12 (atropisomer, axis not shown) [Example 438, 2-amino-4-((R)-2-(((S)-2-(difluoromethylene)tetrahydro-1H-pyrrolizin-7a(5H)-yl)methoxy)-8-fluoro-4-((1S,7S,8S)-8-fluoro-5-oxa-2-azabicyclo[5.1.0]octan-2-yl)-6-(trifluoromethyl)quinazolin-7-yl)-7-fluorobenzo[b]thiophene-3-carbonitrile]
